# Measured values as given in ChEMBL document CHEMBL4680286, “Design, synthesis and antibacterial evaluation of novel oxazolidinone derivatives nitrogen-containing fused heterocyclic moiety” (2021).
# Legend:
# Format in all cases: functional
# Streptococcus = assay: Antibacterial activity against Streptococcus
# Staphylococcus aureus [1] = assay: Antibacterial activity against Staphylococcus aureus ATCC 29213
# Staphylococcus = assay: Antibacterial activity against Staphylococcus
# Enterococcus = assay: Antibacterial activity against Enterococcus
# Staphylococcus aureus [2] = assay: Antibacterial activity against methicillin-resistant Staphylococcus aureus
# Enterococcus faecium [3] = assay: Antibacterial activity against vancomycin-resistant Enterococcus faecium
# Enterococcus faecalis [4] = assay: Antibacterial activity against linezolid-resistant Enterococcus faecalis
# Staphylococcus aureus [5] = assay: Antibacterial activity against methicillin-sensitive Staphylococcus aureus
# Staphylococcus aureus [6] = assay: Antibacterial activity against hospital acquired methicillin-sensitive Staphylococcus aureus clinical isolates
# Staphylococcus aureus [7] = assay: Antibacterial activity against hospital acquired methicillin-resistant Staphylococcus aureus clinical isolates
# Enterococcus faecalis [8] = assay: Antibacterial activity against hospital acquired linezolid-resistant Enterococcus faecalis clinical isolates
# Enterococcus faecium [9] = assay: Antibacterial activity against hospital acquired vancomycin-resistant Enterococcus faecium clinical isolates
Compound,MIC (Streptococcus) [µg/mL],MIC (Staphylococcus aureus [1]) [µg/mL],MIC (Staphylococcus) [µg/mL],MIC (Enterococcus) [µg/mL],MIC (Staphylococcus aureus [2]) [µg/mL],MIC (Enterococcus faecium [3]) [µg/mL],MIC (Enterococcus faecalis [4]) [µg/mL],MIC (Staphylococcus aureus [5]) [µg/mL],MIC (Staphylococcus aureus [6]) [µg/mL],MIC (Staphylococcus aureus [7]) [µg/mL],MIC (Enterococcus faecalis [8]) [µg/mL],MIC (Enterococcus faecium [9]) [µg/mL]
CC(=O)NC[C@H]1CN(c2ccc(-c3ccc(CNCc4cnn[nH]4)cc3)c(F)c2)C(=O)O1 [RADEZOLID],0.125,0.5,0.125,0.125,0.5,0.5,0.5,0.5,,,,
CC(=O)NC[C@H]1CN(c2ccc(-c3ccc(-c4nc5n(n4)CCNC5)cc3)c(F)c2)C(=O)O1,,2,,,2,1,1,1,,,,
CC(=O)NC[C@H]1CN(c2ccc(-c3ccc(-c4nc5n(n4)CCN(C)C5)cc3)c(F)c2)C(=O)O1,,1,,,1,1,2,1,,,,
CC(=O)NC[C@H]1CN(c2ccc(-c3ccc(-c4nnc5ccccn45)cc3)c(F)c2)C(=O)O1,,2,,,2,2,1,1,,,,
CC(=O)NC[C@H]1CN(c2ccc(-c3ccc(-c4nnc5cnccn45)cc3)c(F)c2)C(=O)O1,,1,,,1,1,1,1,,,,
CC(=O)NC[C@H]1CN(c2ccc(-c3ccc(-c4cc5n(n4)CCNC5)cc3)c(F)c2)C(=O)O1,,2,,,2,0.5,2,2,,,,
CC(=O)NC[C@H]1CN(c2ccc(-c3ccc(-c4nc5cnccn5n4)cc3)c(F)c2)C(=O)O1,,0.5,,,0.5,0.5,0.5,0.5,0.5,0.5,0.5,0.5
CC(=O)NC[C@H]1CN(c2ccc(-c3ccc(-c4cc5n(n4)CCN(C)C5)cc3)c(F)c2)C(=O)O1,,1,,,1,0.5,1,1,,,,
CC(=O)NC[C@H]1CN(c2ccc(N3CCOCC3)c(F)c2)C(=O)O1 [LINEZOLID],,1,,,1,2,> 16,1,1,1,> 16,1
CC(=O)NC[C@H]1CN(c2ccc(-c3ccc(-c4nc5ccccn5n4)cc3)c(F)c2)C(=O)O1,,2,,,1,0.5,1,2,,,,
